# Data: publication PMC4657899, “Design, Synthesis and In Vitro Activity of Anticancer Styrylquinolines. The p53 Independent Mechanism of Action” (PLoS ONE, 2015)
# Assays:
# HCT116 (p53+/+) = assay: MTS anti-proliferative assay, HCT116 (p53+/+); assay type: cell-based, human; details: mean ± SD
# Method: (§1) The human colon adenocarcinoma cell line HCT116 along with wild type p53 (p53^+/+) were obtained from the ATCC. The normal human fibroblast cell line GM 07492 and HCT116 with a p53 deletion (p53^-/-) were kindly provided by prof. M. Rusin from Maria Sklodowska-Curie Memorial Cancer Center and Institute of Oncology in Gliwice, Poland. Cells were grown as monolayer cultures in 75 cm^2 flasks (Nunc) in Dulbecco’s modified Eagle’s medium with an antibiotic gentamicin (200 μL/100 mL medium). DMEM for HCT116 were supplemented with 12% heat-inactivated fetal bovine serum (Gibco) and for GM 07492 with 15% fetal bovine serum (Gibco). Cells were cultured under standard conditions at 37°C in a humidified atmosphere at 5% CO2.
# (§2) The cells were seeded in 96-well plates 24 h before the addition of the compounds that were tested. The assay was performed following a 72 h incubation with varying concentrations of the agents that were tested. The results were calculated as IC50 values (using GraphPad Prism 5). Each individual compound was tested in triplicate in a single experiment with each experiment being repeated three times. After a 72 h incubation with the compounds that were tested, 20 μL of The CellTiter 96®AQueous One Solution—MTS (Promega) solution was added to each well (with 100 μL DMEM without phenol red) and incubated for 1 h at 37°C. The optical densities of the samples were analyzed at 490 nm. Results were expressed as a percentage of the control.
# HCT116 (p53-/-) = assay: MTS anti-proliferative assay, HCT116 (p53-/-); assay type: cell-based, human; details: for IC50: MTS, 72 h incubation, mean ± SD
# Method: as §1, §2
# GM 07492 = assay: MTS cytotoxicity assay, normal fibroblasts GM 07492; assay type: cell-based; details: 72 h incubation, normal human fibroblasts, mean ± SD
# Method: as §1, §2
# HCT116 +/+ = assay: Trypan blue staining test, HCT116 +/+; assay type: cell-based, human; details: S2 Table, trypan blue cell counting, 72 h
# Method: (§3) The cells were seeded in 3 cm Petri dishes (Nunc) and incubated at 37°C. After 24h, solutions […]
# (§4) a 72 h incubation with tested compounds, the cells were trypsinize d with 0.05% Trypsin -EDTA solution (Sigma). Then, 90µl of suspension cells transferred into 96 -well plate containing 10µl Trypan blue reagent in wells. The cells were counted under an optical inverted microscope Olympus CKX31. The results from three independent experiment were calculated as IC 50 values using GraphPad Prism 5 software.
# HCT116 -/- = assay: Trypan blue staining test, HCT116 -/-; assay type: cell-based, human; details: S2 Table, trypan blue cell counting, 72 h
# Method: as §3, §4
# Calf-thymus DNA (CT-DNA) = assay: Spectrophotometric DNA binding (intercalation) study with CT-DNA
# Method: For the DNA binding studies, Calf-thymus DNA (CT-DNA) was purchased from Sigma Aldrich. The lyophilized CT-DNA was dissolved in 10 mM Tris-HCl, pH 7.9, mixed gently and left overnight at 4°C. Then, the concentration of CT-DNA was determined from the absorbance at 260 nm using an extinction coefficient of 6600 M^-1cm^-1. […] Afterwards, 18 μM CT-DNA was added to the prepared solutions and were incubated for 1.5 h at 37°C with occasional vortexing. Absorption spectra were measured using a Hitachi U-2900 spectrophotometer in range of 200–600 nm. All absorption spectra were imported and compared in OriginPro 8.0.
# [1] = Homo sapiens, HCT-116, 72 h incubation
Compound,IC50 (HCT116 (p53+/+); 72 h incubation),IC50 (HCT116 (p53-/-)),IC50 (HCT116 (p53+/+); [1]),"IC50 (HCT116 (p53-/-); Homo sapiens, HCT-116)",melting point,further results
"CCOc1ccccc1C=Cc1ccc2c(Cl)cc(Cl)c(O)c2n1 [1c, 5,7-Dichloro-2 – [2-(2-ethoxyphenyl)vinyl]quinolin-8-ol]",,,5.93 ± 0.97 µM,3.25 ± 1.81 µM,100 to 102 °C,IC50 (GM 07492; Fibroblast): > 25 µM
CCOc1ccc(C=Cc2ccc3ccccc3n2)cc1 [2a],,,> 25 µM,> 25 µM,,
"Oc1c(Cl)cc(Cl)c2ccc(C=Cc3ccccc3Cl)nc12 [2c, 5,7-Dichloro-2 – [2-(2-chlorophenyl)vinyl]quinolin-8-ol]",,,,,205 to 210 °C,
CCCCOc1ccc(C=Cc2ccc3ccccc3n2)cc1 [3a],> 25 µM,> 25 µM,,,,IC50 (HCT116 +/+): > 25 µM; IC50 (HCT116 -/-): > 25 µM
"CCOc1ccc(C=Cc2ccc3c(Cl)cc(Cl)c(O)c3n2)cc1 [3c, 5,7-Dichloro-2 – [2-(4-ethoxyphenyl)vinyl]quinolin-8-ol]",,,2.23 µM,3.53 ± 0.83 µM,156 to 158 °C,"IC50 (GM 07492; Fibroblast): > 25 µM; % hypochromism (Calf-thymus DNA (CT-DNA); 18 μM CT-DNA, 1.5 h 37°C, Tris-HCl pH 7.9, at the (first) absorption band (CP-31398: 312)): 11,6%; Δε (Calf-thymus DNA (CT-DNA); 18 μM CT-DNA, at the (first) absorption band (CP-31398: 312)): 557,8 M−1 cm−1; shift of the wavelength of maximum absorption, alone vs DNA-bound (Calf-thymus DNA (CT-DNA); S3 Table, 18 μM CT-DNA): 8; Changes in absorbance (Calf-thymus DNA (CT-DNA); S3 Table, with CT-DNA): hypochromism"
COc1cc(C=Cc2ccc3cccc(O)c3n2)cc(OC(C)=O)c1OC(C)=O [7b],,,> 25 µM,> 25 µM,172 °C,
CC(=O)Oc1ccc(C=Cc2ccc3cccc(OC(C)=O)c3n2)c(OC(C)=O)c1 [8b],> 25 µM,> 25 µM,,,,
Oc1cc(O)c(C=Cc2ccc3cccc(O)c3n2)c(O)c1 [9b],> 25 µM,> 25 µM,,,,
CC(=O)Oc1cc(OC(C)=O)c(C=Cc2ccc3cccc(OC(C)=O)c3n2)c(OC(C)=O)c1 [10b],,,> 25 µM,> 25 µM,189 °C,

# More lines, main results first:
IC50 (HCT116 (p53+/+); 72 h incubation),IC50 (HCT116 (p53-/-)),IC50 (HCT116 (p53+/+); [1]),"IC50 (HCT116 (p53-/-); Homo sapiens, HCT-116)",melting point,Compound,further results
17.4 ± 2.2 µM,14.1 ± 2.24 µM,,,,Oc1ccccc1C=Cc1ccc2ccccc2n1 [1a],IC50 (GM 07492): > 25 µM
8.08 ± 0.56 µM,14.7 ± 1.74 µM,,,,CC(=O)Oc1ccccc1C=Cc1ccc2cccc(OC(C)=O)c2n1 [2b],IC50 (GM 07492): 6.92 ± 1.72 µM
7.32 ± 1.01 µM,13.5 ± 0.81 µM,,,,CC(=O)Oc1ccccc1C=Cc1ccc2cccc(O)c2n1 [3b],IC50 (GM 07492): > 25 µM
7.88 ± 1.98 µM,10.7 ± 3.76 µM,,,,CC(=O)Oc1cccc(C=Cc2ccc3cccc(O)c3n2)c1 [4b],IC50 (GM 07492): > 25 µM
,,15.4 ± 2.46 µM,8.38 ± 1.12 µM,239 °C,Oc1cccc2ccc(C=Cc3ccccc3F)nc12 [11b],times more effective against HCT116 (p53-/-) than against wild type cells (HCT116 (p53-/-); ratio of MTS IC50 values): 2–3 times; IC50 (GM 07492; Fibroblast): > 25 µM
